Data: EP0187355A1, “Process for preparing beta-lactam antibiotics” (E.R. Squibb & Sons, Inc., priority 1981, dated 1982)
Counter-ions that a name gives are not always drawn.

How the values were obtained:
Assay in all cases: MIC, agar dilution
Assay type in all cases: cell-based
[1] = tested on: Acinetobacter calcoaceticus, 8333; conditions: Acinetobacter calcoaceticus, 8333, 18 h, K-10 agar, 10^4 CFU, 37°C, read-out: M.I.C.
Outline: (§1)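 MIC, the lowest compound concentration preventing visible growth, is read after plates incubate 18 h at 37°C. Plates hold K-10 agar with twofold drug dilutions spanning 100 to 0.05 µg/ml, each spot-inoculated with 10^4 CFU.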

[2] = tested on: Citrobacter freundii, 9518; conditions: K-10 agar, 10^4 CFU, 37°C, 18 hours, read-out: M.I.C.
Outline: as §1

[3] = tested on: Enterobacter aerogenes, 10078; conditions: Klebsiella aerogenes, 10078, 18 h, Enterobacter aerogenes, 10078; K-10 agar, 10^4 CFU, 37°C, 18 hours; read-out: M.I.C.
Outline: as §1

[4] = tested on: Escherichia coli, 10857; conditions: Escherichia coli, 10857, 18 h, K-10 agar, 10^4 CFU, 37°C
Outline: as §1

[5] = tested on: Escherichia coli, 10896; conditions: K-10 agar, 10^4 CFU, 37°C, 18 hours
Outline: as §1

[6] = tested on: Escherichia coli, 10909; conditions: K-10 agar, 10^4 CFU, 37°C, 18 hours
Outline: as §1

[7] = tested on: Escherichia coli, 8294; conditions: Escherichia coli, 8294, 18 h, K-10 agar, 10^4 CFU, 37°C
Outline: as §1

[8] = tested on: Klebsiella aerogenes, 10440; conditions: K-10 agar, 10^4 CFU, 37°C, 18 hours, read-out: M.I.C.
Outline: as §1

[9] = tested on: Klebsiella pneumoniae, 9527; conditions: Klebsiella pneumoniae, 9527, 18 h, K-10 agar, 10^4 CFU, 37°C, read-out: M.I.C.
Outline: as §1

[10] = tested on: Proteus mirabilis, 3855; conditions: Proteus mirabilis, 3855, 18 h, K-10 agar, 10^4 CFU, 37°C, read-out: M.I.C.
Outline: as §1

[11] = tested on: Proteus rettgeri, 8479; conditions: Providencia rettgeri, K-10 agar, 10^4 CFU, 37°C, 18 hours, read-out: M.I.C.
Outline: as §1

[12] = tested on: Proteus vulgaris, 9416; conditions: K-10 agar, 10^4 CFU, 37°C, 18 hours, read-out: M.I.C.
Outline: as §1

[13] = tested on: Pseudomonas aeruginosa, 8329; conditions: K-10 agar, 10^4 CFU, 37°C, 18 hours, read-out: M.I.C.
Outline: as §1

[14] = tested on: Pseudomonas aeruginosa, 9545; conditions: Pseudomonas aeruginosa, 9545, 18 h, K-10 agar, 10^4 CFU, 37°C, read-out: M.I.C.
Outline: as §1

[15] = tested on: Salmonella typhosa, 1195; conditions: Salmonella enterica, TYPHOSA, 18 h, K-10 agar, 10^4 CFU, 37°C
Outline: as §1

[16] = tested on: Serratia marcescens, 9783; conditions: Serratia marcescens, 9783, 18 h, K-10 agar, 10^4 CFU, 37°C, read-out: M.I.C.
Outline: as §1

[17] = tested on: Shigella sonnei, 8449; conditions: Shigella sonnei, 8449, 18 h, K-10 agar, 10^4 CFU, 37°C
Outline: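 Overnight broth cultures (37°C, 18–20 h) were diluted 1:100 and spotted onto K-10 agar plates containing twofold compound dilutions (final 100 to 0.05 µg/ml), giving 10^4 CFU per spot. After 18 h at 37°C, MIC was read as the lowest concentration inhibiting growth.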

[18] = tested on: Staphylococcus aureus, 10165; conditions: Staphylococcus aureus, 10165; K-10 agar, 10^4 CFU, 37°C, 18 hours; read-out: M.I.C.
Outline: as §1

[19] = tested on: Staphylococcus aureus, 1276; conditions: Staphylococcus aureus, 1276; K-10 agar, 10^4 CFU, 37°C, 18 hours; read-out: M.I.C.
Outline: as §1

[20] = tested on: Staphylococcus aureus, 2399; conditions: Staphylococcus aureus, 2399, 18 h, Staphylococcus aureus, 2399; K-10 agar, 10^4 CFU, 37°C, 18 hours; read-out: M.I.C.
Outline: as §1

[21] = tested on: Staphylococcus aureus, 2400; conditions: Staphylococcus aureus, 2400; K-10 agar, 10^4 CFU, 37°C, 18 hours; read-out: M.I.C.
Outline: as §1

[22] = tested on: Streptococcus faecalis, 9011; conditions: Enterococcus faecalis; Streptococcus faecalis, 9011; K-10 agar, 10^4 CFU, 37°C, 18 hours; read-out: M.I.C.
Outline: as §1

[23] = tested on: Enterobacter cloacae, 8236; conditions: Enterobacter cloacae, 8236, 18 h, K-10 agar, 10^4 CFU, 37°C
Description: (§2) The following methodology is used to determine the minimum inhibitory concentration (hereinafter referred to as MIC) of the […] of this invention.
(§3) The test organisms are grown in approximately 15-20 ml of Antibiotic Assay broth (Difco) by inoculating (in tubes) the broth with a loopful of the organism from a BHI (Difco) agar slant. The inoculated tubes are incubated at 37°C for 18 to 20 hours. These cultures are assumed to contain 10^9 colony forming units (hereinafter CFU) per milliliter. The cultures are diluted 1:100 to give a final inoculum level of 10^4 CFU; dilutions are made with K-10 broth^*.
(§4) The compounds are dissolved in the appropriate diluent at a concentration of 1000 µg/ml. Twofold dilutions are made in K-10 broth resulting in a range from 1000 µg/ml to 0.5 µg/ml. 1.5 ml of each dilution is placed into individual square petri dishes to which 13.5 ml of K-10 agar^** is added. The final drug concentration in the agar ranges from 100 µg/ml to 0.05 µg/ml. Organism growth control plates containing agar only are prepared and inoculated before and after the test plates. The organisms are applied to the agar surface of each plate with the Denley Multipoint Inoculator (which delivers approximately 0.001 ml of each organism) resulting in a final inoculum level of 10^4 CFU on the agar surface.
(§5) The MIC is the lowest concentration of compound inhibiting growth of the organism.
(§6) The number following each organism refers to the number of the organism in the collection of E. R. Squibb & Sons,.Inc., Princeton, New Jersey. […] The symbol "N.T." means not tested.

[24] = tested on: Micrococcus luteus, 2495; conditions: Micrococcus luteus, 2495, 18 h, K-10 agar, 10^4 CFU, 37°C, read-out: M.I.C.
Description: as §2, §3, §4, §5, §6

[25] = tested on: Streptococcus agalactiae, 9287; conditions: Streptococcus agalactiae, 9287, 18 h, K-10 agar, 10^4 CFU, 37°C, read-out: M.I.C.
Description: as §2, §3, §4, §5, §6

SMILES	MIC [1] [µg/mL]	MIC [2] [µg/mL]	MIC [3] [µg/mL]	MIC [4] [µg/mL]	MIC [5] [µg/mL]	MIC [6] [µg/mL]	MIC [7] [µg/mL]	MIC [8] [µg/mL]	MIC [9] [µg/mL]	MIC [10] [µg/mL]	MIC [11] [µg/mL]	MIC [12] [µg/mL]	MIC [13] [µg/mL]	MIC [14] [µg/mL]	MIC [15] [µg/mL]	MIC [16] [µg/mL]	MIC [17] [µg/mL]	MIC [18] [µg/mL]	MIC [19] [µg/mL]	MIC [20] [µg/mL]	other results
CC1C(NC(=O)OCc2ccccc2)C(=O)N1S(=O)(=O)O (racemic) [Example 1, (±―cis)-4-Methyl-2-oxo-3-[[(phenylmethoxy)carbonyl]-amino]-1-azetidinesulfonic acid, potassium salt]	> 100	> 100	> 100	> 100	> 100	> 100	> 100	> 100	> 100	> 100	> 100	> 100	> 100	> 100	> 100	> 100	> 100	100	100	50	MIC [21]: 50 µg/mL; MIC [22]: > 100 µg/mL; MIC [23]: > 100 µg/mL; MIC [24]: > 100 µg/mL; MIC [25]: 100 µg/mL
COC1(NC(=O)Cc2ccccc2)C(=O)N(S(=O)(=O)O)C1C (stereo not drawn) [Example 29, (3S-trans)-3-Methoxy-4-methyl-2-oxo-3-[(phenylacetyl)-amino]-1-azetidinesulfonic acid, potassium salt]	> 100	> 100	> 100	> 100	100	100	> 100	> 100	100	> 100	> 100	> 100	> 100	> 100	> 100	> 100	> 100	> 100	> 100	> 100	MIC [21]: > 100 µg/mL; MIC [22]: > 100 µg/mL; MIC [23]: > 100 µg/mL; MIC [24]: > 100 µg/mL; MIC [25]: > 100 µg/mL
C[C@H]1[C@H](NC(=O)C(=O)c2csc(N)n2)C(=O)N1S(=O)(=O)O [Example 27, (3S-trans)-3-[[(2-Amino-4-thiazolyl)oxoacetyl]-amino]-4-methyl-2-oxo-1-azetidinesulfonic acid, potassium salt]	> 100	3.1	6.3	3.1	3.1	1.6	6.3	6.3	6.3	3.1	0.4	6.3	> 100	50	3.1	3.1	3.1	> 100	> 100	> 100	MIC [21]: > 100 µg/mL; MIC [22]: > 100 µg/mL; MIC [23]: 3.1 µg/mL; MIC [24]: 100 µg/mL; MIC [25]: 12.5 µg/mL
C[C@@H]1[C@H](NC(=O)[C@H](NC(=O)N2CCN(N=Cc3ccco3)C2=O)c2ccccc2)C(=O)N1S(=O)(=O)O (relative stereo) [Example 21, [3S-[3α(R*),4α]]-3-[[[[[3-[(2-furanylmethylene)-amino]-2-oxo-1-imidazolidinyl]carbonyl]-amino]phenylacetyl]amino]-4-methyl-2-oxo-1-azetidinesulfonic acid, potassium salt]	50	1.6	3.1	< 0.05	0.4	0.2	1.6	1.6	0.2	0.8	1.6	< 0.05	12.5	12.5	0.4	3.1	0.8	100	3.1	3.1	MIC [21]: 6.3 µg/mL; MIC [22]: > 100 µg/mL; MIC [23]: 1.6 µg/mL; MIC [24]: 3.1 µg/mL; MIC [25]: 0.4 µg/mL
